# Data as given in patent publication US11952582B2, “Herbicide-resistance gene and application thereof in plant breeding” (priority 2017, dated 2024).
# Entries after “also recorded” stand apart in the source; their conditions may differ.
# Assays:
# [1] = system: WT and T0 OE SDM rice seedlings; experiment: Rice resistance to herbicide at pot level (spray); format: in vivo; details: 200 μM spray, 21 d (3 weeks)
# Procedure: Transgenic T0 generation OE SDM and WT rice seedlings were planted in pots containing soil and placed in an artificial climate room (30° C. 16 h light/28° C. 8 h dark) for growth. 3 weeks later, when the rice seedlings reached a height of 15-20 cm, 200 μM mesotrione (prepared with 0.1% Tween-20) and 0.1% Tween-20 were sprayed to OE SDM and WT rice seedlings, respectively. Then, the phenotype should be observed every week. The oxidative stress index was measured 1 week after the treatment, the chlorophyll content of the leaves was measured 2 weeks after the treatment, and the experimental result was photographed 3 weeks after the treatment.
# [2] = system: Arabidopsis WT, OE At, OE Pa, OE M3 plants; experiment: Total chlorophyll and carotenoid content of Arabidopsis rosette leaves; format: in vivo, Arabidopsis thaliana
# Procedure: The leaves (rosette leaves) of 2 week-old plants grown in ^1/2 MS medium containing different concentrations (0, 100, 250, 500 and 1000 nM) of mesotrione were collected, including leaves of OE At, OE Pa, OE M3 and WT. The total chlorophyll and carotenoid were extracted and the content thereof was detected by referring to the method of Lichtenthaler HK (1987). All experiments were repeated biologically 3 times, and the average value was taken.
# [3] = system: WT and T0 OE SDM rice leaves; experiment: Oxidative stress indexes of rice leaves (NBT, DAB staining); format: in vivo; details: 1 week; for O2 and H2O2 accumulation in leaves (NBT, DAB): 200 μM
# Procedure: Herbicides cause the production of reactive oxygen species (ROS), leading to cell death. In order to determine the oxidation state of rice, leaves of wild-type and TO-generation OE SDM rice which were sprayed with 200 μM mesotrione (prepared with 0.1% Tween-20) and sprayed with control 0.1% Tween-20 were collected, and stained with nitroblue tetrazolium (NBT) and 3,3-diaminobenzidine (DAB), respectively, to analyze the accumulation of superoxide (O2^−) and hydrogen peroxide (H2O2).
# At the end of the herbicide treatment, leaves of 4 week-old rice (normal growth for 3 weeks and herbicide spray treatment for 1 week) were placed in a 3.5 mg mL^−1 nitroblue tetrazolium (N6876, Sigma-Aldrich) staining solution (potassium phosphate buffer containing 10 mM NaN3), soaked in vacuum, and shaked on a shaker overnight. The NBT-stained plants were destained with a mixed solution of acetic acid:glycerol:ethanol=1:1:3 (v/v/v) at 100° C. for 5 min, and then reserved in a mixed solution of glycerol:ethanol=1:4 (v/v).
# Rice seedling leaves were soaked in DAB staining solution for 2 min under vacuum, and then placed in a shaker for 7-8 h. The DAB-stained plants were destained with a mixed solution of acetic acid:glycerol:ethanol=1:1:3 (v/v/v) at 100° C. for 5 min, and then reserved in a mixed solution of glycerol:ethanol=1:4 (v/v).
# [4] = system: Arabidopsis WT, OE At, OE Pa, OE M3 potted plants; experiment: Herbicide resistance of Arabidopsis at pot level (spray); format: in vivo, Arabidopsis thaliana
# Procedure: 2 week-old Arabidopsis seedlings of WT, OE At, OE Pa, and OE M3 were transplanted into soil-filled pots (12 seedlings per pot) and growth in a phytotron (22° C., 14 h light/10 h dark, 120 μmol m^−2 s^−1 light intensity) for 4 weeks. Then, 5 μM mesotrione solution (prepared with 0.05% Tween-20) were sprayed twice with a treatment interval of 3 days, and compared with the control treatment (0.05% Tween-20 without herbicide). The spray treatment was biologically repeated 3 times. Two weeks after the first herbicide spray, the test results were photographed.
# [5] = system: GmHPPD, HST, HPT, MPQMT and TC gene expression in soybean seedlings; experiment: qPCR of HPPD and tocopherol biosynthesis genes in soybean after herbicide treatment; format: in vivo; details: 20 μM, 12 h
# Procedure: 4 week-old T1 generation seedlings of WT, OE GmHPPD and OE PaHPPD-SDM were used as materials to set up a treatment group and a control group, respectively, wherein the treatment group was continuously cultured in ½ MS liquid medium containing 20 μM mesotrione for 12 h. The total RNA of related materials was extracted using Super Fast Plant RNA Extraction Kit (Beijing Huayueyang Biological Technology Co., Ltd., China). The concentration of RNA samples was measured using NanoDrop ND1000 (Thermo Scientific, USA). RNA samples with an absorbance ratio (at wavelengths of 260/280 nm and 260/230 nm) of approximately 2.0 were selected. The total RNA (1,000 ng) was then used for synthesis of cDNA for reverse transcription using a cDNA synthesis kit (One-step Removal of Transcript gDNA and cDNA Synthesis Super Kit, TransGen).
# As for quantitative reverse transcription PCR analysis, 3.0 μL cDNA was used as a template in a 20 μL reaction system, and gene-specific primers such as qGmHPPD F and qGmHPPD R were used for GmHPPD gene, qGmHST F and qGmHST R were used for […] gene (alkapton lycopene transferase gene), qGmHPT F and qGmHPT R were used for GmHPT or VTE2 genes, GmMPQMT F and MPQMT R were used for GmMPQMT methyl transferase genes (also known as VTE3), GmTC F and GmTC R were used for GmTC genes (also known as VTE1, tocopherol cyclase gene). These VTE (1, 2 and 3) genes were selected because they encode the key enzymes involved in tocopherol biosynthesis. Three technical repetitions were performed on the Bio-Rad CFX96 real-time system. REST software was used for statistical analysis.
# [6] = system: WT and T0 OE SDM rice seedlings; experiment: Total chlorophyll content in rice leaves; format: in vivo; details: 200 μM
# Procedure: Referring to the method of Lichtenthaler HK (1987), chlorophyll was extracted from the leaves of wild-type and T0 generation OE SDM rice seedlings which were sprayed with 200 μM mesotrione (prepared with 0.1% Tween-20) and sprayed with control 0.1% Tween-20 after 2 weeks and its content was determined. All experiments were repeated biologically 3 times, and the average value was taken.
smiles,measurement,setting,value
CS(=O)(=O)c1ccc(C(=O)C2C(=O)CCCC2=O)c([N+](=O)[O-])c1 [mesotrione],phenotype of leaves/plants,[1]; OE SDM rice line (T0),grew well; also recorded: very small visible signs of damage
same,phenotype of leaves/plants,[1]; WT rice,albino and the growth was inhibited until death; also recorded: withered and died
same,total chlorophyll and carotenoid content of leaves with the increase of herbicide concentration,"[2]; WT, OE At, OE Pa and OE M3, 0-1000 nM in 1/2 MS medium",decreased
same,"total chlorophyll and carotenoid content of OE M3 compared with WT, OE At and OE Pa",[2]; same herbicide concentration,significantly higher
same,"contents of superoxide, H2O2 and MDA in WT rice leaves compared with OE SDM rice leaves",[3]; 200 μM spray,significantly higher
same,"O2 and H2O2 accumulation in leaves (NBT, DAB)",[3]; OE SDM rice,little
same,"O2 and H2O2 accumulation in leaves (NBT, DAB)",[3]; WT rice,large number
same,maximum tolerance concentration under potted conditions,"[4]; Arabidopsis overexpressing PaHPPD-M3, sprayed on fully expanded leaves",5 µM
same,phenotype,"[4]; OE M3 line, 5 μM sprayed twice, 2 weeks after first spray",grows well
same,phenotype of new leaves of seedlings,"[4]; WT, OE At and OE Pa lines, 5 μM sprayed twice, 2 weeks after first spray",completely albino
same,expression levels of GmHPPD and MPQMT genes compared with control,[5]; OE GmHPPD T1 line,decreased
same,"expression levels of HST, HPT and TC genes compared with control",[5]; OE GmHPPD T1 line,increased
same,expression levels of GmHPPD and HPT genes compared with control,[5]; OE PaHPPD-SDM T1 line,up-regulated
same,"expression levels of HST, MPQMT and TC genes compared with control",[5]; OE PaHPPD-SDM T1 line,almost unchanged
same,"expression of GmHPPD, HST, HPT, MPQMT and TC genes compared with control",[5]; wild-type William 82,significantly reduced
same,chlorophyll content of leaves after treatment,[6]; OE PaHPPD-SDM rice,did not decrease significantly
same,total chlorophyll content in leaves compared with treated OE SDM rice,"[6]; WT rice, 2 weeks",greatly reduced
